In patent US11225505B2, “Antimicrobial polymyxin derivative compounds” (MONASH UNIVERSITY, priority 2015, dated 2022):
Converted amounts (≈) assume the structure as drawn. Where a SMILES comes first, the peptide text is derived from it. Bridges are numbered along the chain shown (N, C = ends). [ ]: non-standard residue; d: D form. The star is where a group is joined. Benzofuran(2-CO) = O=C(c1cc2ccccc2o1)*; X45 = O=C(c1cc(C(F)(F)F)ccn1)*; X32 = O=C(c1cnc(Cl)c(Cl)c1)*; X56 = Cn1cc(C(=O)*)c2ccccc21; X2 = O=C(c1cc(Cl)cc(Cl)n1)*; X29 = O=C(c1cc(Cl)ccn1)*; X59 = Cn1c(Br)ccc1C(=O)*; Dab = NCC[C@H](N)C(=O)O; X68 = O=C(c1coc(Br)c1)*; Abu = CC[C@H](N)C(=O)O; Dap = NC[C@H](N)C(=O)O; X31 = O=C(c1ncccc1Cl)*

How the values were obtained:
Format in all cases: cell-based
[1] = test system: Acinetobacter baumannii FADDI-AB030; assay: microbe, parasite or virus in culture; conditions: FADDI-AB030
Procedure, shortened: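 Broth microdilution MIC in cation-adjusted Mueller-Hinton broth per CLSI M100-S24; lipopeptides tested as TFA salts. FADDI-AB030 is a multidrug-resistant clinical isolate. Polymyxin B sulphate served as control.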

[2] = test system: Acinetobacter baumannii FADDI-AB034; conditions: FADDI-AB034
Procedure, shortened: (§1)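 Standard CLSI (M100-S24) microdilution in cation-adjusted broth gives the MIC for each strain. Test compounds are TFA-salt lipopeptides; the comparator is polymyxin B sulphate.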

[3] = test system: Acinetobacter baumannii ATCC 17978; conditions: ATCC 17978
Procedure, shortened: as §1

[4] = test system: Pseudomonas aeruginosa FADDI-PA038; conditions: FADDI-PA038
Procedure, shortened: as §1

[5] = test system: Klebsiella pneumoniae Kp BM1; conditions: Kp BM1
Procedure, shortened: (§2)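 Lipopeptides (TFA salts) tested against Gram-negative strains by CLSI broth microdilution using cation-adjusted Mueller-Hinton broth; MIC recorded, polymyxin B sulphate as control.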

[6] = test system: Klebsiella pneumoniae FADDI-KP032; conditions: FADDI-KP032
Procedure, shortened: as §1

[7] = test system: Enterobacter cloacae FADDI-EC001; conditions: FADDI-EC001
Procedure, shortened: as §2

[8] = test system: Enterobacter cloacae FADDI-EC003; conditions: FADDI-EC003
Procedure, shortened: as §1

[9] = test system: Pseudomonas aeruginosa FADDI-PA01; conditions: FADDI-
Procedure, shortened: as §1

[10] = test system: Enterobacter cloacae FADDI-EC006; conditions: FADDI-EC006
Procedure, shortened: as §1

[11] = test system: Pseudomonas aeruginosa ATCC 27853; conditions: ATCC 27853
Procedure, shortened: as §1

[12] = test system: Klebsiella pneumoniae FADDI-KP022; conditions: FADDI-KP022
Procedure, shortened: as §1

[13] = test system: Pseudomonas aeruginosa FADDI-PA022; conditions: FADDI-PA022
Procedure, shortened: as §1

Structure (SMILES) | Minimum inhibitory concentration [1] | Minimum inhibitory concentration [2] | Minimum inhibitory concentration [3] | Minimum inhibitory concentration [4] | Minimum inhibitory concentration [5] | Minimum inhibitory concentration [6] | Minimum inhibitory concentration [7] | Minimum inhibitory concentration [8] | Minimum inhibitory concentration [9] | Minimum inhibitory concentration [10] | Minimum inhibitory concentration [11] | Minimum inhibitory concentration [12] | Minimum inhibitory concentration [13]
CC[C@@H]1NC(=O)[C@@H](CC(C)C)NC(=O)[C@H](CCN)NC(=O)[C@@H](NC(=O)[C@H](CN)NC(=O)[C@@H](NC(=O)[C@H](CCN)NC(=O)c2cn(C)c3ccccc23)[C@@H](C)O)CCNC(=O)[C@H]([C@@H](C)O)NC(=O)[C@H](CCN)NC(=O)[C@H](CCN)NC1=O [Compound 63] (X56-[Dab]T[Dap][Dab][Dab][dL][Abu][Dab][Dab]T; lactam 4-C) | 0.5 µg/mL (≈ 0.437 µM) | 1 µg/mL (≈ 0.874 µM) | 1 µg/mL (≈ 0.874 µM) | 0.5 µg/mL (≈ 0.437 µM) | <0.125 µg/mL | <0.125 µg/mL | <0.125 µg/mL | 2 µg/mL (≈ 1.75 µM) | <0.125 µg/mL | 2 µg/mL (≈ 1.75 µM) | 0.5 µg/mL (≈ 0.437 µM) | <0.125 µg/mL | 0.25 µg/mL (≈ 0.218 µM)
CC[C@@H]1NC(=O)[C@@H](CC(C)C)NC(=O)[C@H](CCN)NC(=O)[C@@H](NC(=O)[C@H](CN)NC(=O)[C@@H](NC(=O)[C@H](CCN)NC(=O)c2cnc(Cl)c(Cl)c2)[C@@H](C)O)CCNC(=O)[C@H]([C@@H](C)O)NC(=O)[C@H](CCN)NC(=O)[C@H](CCN)NC1=O [Compound 5] (X32-[Dab]T[Dap][Dab][Dab][dL][Abu][Dab][Dab]T; lactam 4-C) | 0.5 µg/mL (≈ 0.431 µM) | 0.5 µg/mL (≈ 0.431 µM) | 1 µg/mL (≈ 0.861 µM) | 0.5 µg/mL (≈ 0.431 µM) | <0.25 µg/mL | 0.25 µg/mL (≈ 0.215 µM) | 0.25 µg/mL (≈ 0.215 µM) | 0.5 µg/mL (≈ 0.431 µM) | 0.25 µg/mL (≈ 0.215 µM) | 1 µg/mL (≈ 0.861 µM) | 1 µg/mL (≈ 0.861 µM) | <0.125 µg/mL | 1 µg/mL (≈ 0.861 µM)
CC[C@@H]1NC(=O)[C@@H](CC(C)C)NC(=O)[C@H](CCN)NC(=O)[C@@H](NC(=O)[C@H](CN)NC(=O)[C@@H](NC(=O)[C@H](CCN)NC(=O)c2ncccc2Cl)[C@@H](C)O)CCNC(=O)[C@H]([C@@H](C)O)NC(=O)[C@H](CCN)NC(=O)[C@H](CCN)NC1=O [Compound 36] (X31-[Dab]T[Dap][Dab][Dab][dL][Abu][Dab][Dab]T; lactam 4-C) | 4 µg/mL (≈ 3.55 µM) | 4 µg/mL (≈ 3.55 µM) | 8 µg/mL (≈ 7.1 µM) | 1 µg/mL (≈ 0.888 µM) | 2 µg/mL (≈ 1.78 µM) | 1 µg/mL (≈ 0.888 µM) | 0.25 µg/mL (≈ 0.222 µM) | 0.5 µg/mL (≈ 0.444 µM) | 0.5 µg/mL (≈ 0.444 µM) | 2 µg/mL (≈ 1.78 µM) | 0.5 µg/mL (≈ 0.444 µM) | <0.125 µg/mL | 0.5 µg/mL (≈ 0.444 µM)
CC[C@@H]1NC(=O)[C@@H](CC(C)C)NC(=O)[C@H](CCN)NC(=O)[C@@H](NC(=O)[C@H](CN)NC(=O)[C@@H](NC(=O)[C@H](CCN)NC(=O)c2cc3ccccc3o2)[C@@H](C)O)CCNC(=O)[C@H]([C@@H](C)O)NC(=O)[C@H](CCN)NC(=O)[C@H](CCN)NC1=O [Compound 92] ({Benzofuran(2-CO)}-[Dab]T[Dap][Dab][Dab][dL][Abu][Dab][Dab]T; lactam 4-C) | 0.5 µg/mL (≈ 0.442 µM) | 0.5 µg/mL (≈ 0.442 µM) | 1 µg/mL (≈ 0.884 µM) | 0.5 µg/mL (≈ 0.442 µM) | 0.5 µg/mL (≈ 0.442 µM) | 0.5 µg/mL (≈ 0.442 µM) | <0.125 µg/mL | 0.25 µg/mL (≈ 0.221 µM) | 0.5 µg/mL (≈ 0.442 µM) | <0.125 µg/mL | 0.5 µg/mL (≈ 0.442 µM) | <0.125 µg/mL | 0.5 µg/mL (≈ 0.442 µM)
CC[C@@H]1NC(=O)[C@@H](CC(C)C)NC(=O)[C@H](CCN)NC(=O)[C@@H](NC(=O)[C@H](CN)NC(=O)[C@@H](NC(=O)[C@H](CCN)NC(=O)c2ccc(Br)n2C)[C@@H](C)O)CCNC(=O)[C@H]([C@@H](C)O)NC(=O)[C@H](CCN)NC(=O)[C@H](CCN)NC1=O [Compound 93] (X59-[Dab]T[Dap][Dab][Dab][dL][Abu][Dab][Dab]T; lactam 4-C; N-terminus assumed) | 0.5 µg/mL (≈ 0.426 µM) | 1 µg/mL (≈ 0.852 µM) | 2 µg/mL (≈ 1.7 µM) | 1 µg/mL (≈ 0.852 µM) | 0.25 µg/mL (≈ 0.213 µM) | 0.5 µg/mL (≈ 0.426 µM) | <0.125 µg/mL | 0.5 µg/mL (≈ 0.426 µM) | 0.5 µg/mL (≈ 0.426 µM) | 0.25 µg/mL (≈ 0.213 µM) | 0.5 µg/mL (≈ 0.426 µM) | <0.125 µg/mL | 0.5 µg/mL (≈ 0.426 µM)
CC[C@@H]1NC(=O)[C@@H](CC(C)C)NC(=O)[C@H](CCN)NC(=O)[C@@H](NC(=O)[C@H](CN)NC(=O)[C@@H](NC(=O)[C@H](CCN)NC(=O)c2cc(Cl)cc(Cl)n2)[C@@H](C)O)CCNC(=O)[C@H]([C@@H](C)O)NC(=O)[C@H](CCN)NC(=O)[C@H](CCN)NC1=O [Compound 18] (X2-[Dab]T[Dap][Dab][Dab][dL][Abu][Dab][Dab]T; lactam 4-C) | 0.5 µg/mL (≈ 0.431 µM) | 0.25 µg/mL (≈ 0.215 µM) | 1 µg/mL (≈ 0.861 µM) | 1 µg/mL (≈ 0.861 µM) | 0.25 µg/mL (≈ 0.215 µM) | 0.25 µg/mL (≈ 0.215 µM) | <0.125 µg/mL | 0.5 µg/mL (≈ 0.431 µM) | 0.25 µg/mL (≈ 0.215 µM) | 0.25 µg/mL (≈ 0.215 µM) | 0.25 µg/mL (≈ 0.215 µM) | <0.125 µg/mL | 0.5 µg/mL (≈ 0.431 µM)
CC(C)C[C@H]1NC(=O)[C@H](CCN)NC(=O)[C@@H](NC(=O)[C@H](CN)NC(=O)[C@@H](NC(=O)[C@H](CCN)NC(=O)c2cc(Cl)ccn2)[C@@H](C)O)CCNC(=O)[C@H]([C@@H](C)O)NC(=O)[C@H](CCN)NC(=O)[C@H](CCN)NC(=O)[C@H](C)NC1=O [Compound 97] (X29-[Dab]T[Dap][Dab][Dab][dL]A[Dab][Dab]T; lactam 4-C) | 2 µg/mL (≈ 1.8 µM) | 2 µg/mL (≈ 1.8 µM) | 2 µg/mL (≈ 1.8 µM) | 2 µg/mL (≈ 1.8 µM) | 0.25 µg/mL (≈ 0.225 µM) | 0.5 µg/mL (≈ 0.449 µM) | <0.125 µg/mL | 0.25 µg/mL (≈ 0.225 µM) | 0.25 µg/mL (≈ 0.225 µM) | 0.25 µg/mL (≈ 0.225 µM) | 0.25 µg/mL (≈ 0.225 µM) | <0.125 µg/mL | 0.25 µg/mL (≈ 0.225 µM)
CC[C@@H]1NC(=O)[C@@H](CC(C)C)NC(=O)[C@H](CCN)NC(=O)[C@@H](NC(=O)[C@H](CN)NC(=O)[C@@H](NC(=O)[C@H](CCN)NC(=O)c2cc(C(F)(F)F)ccn2)[C@@H](C)O)CCNC(=O)[C@H]([C@@H](C)O)NC(=O)[C@H](CCN)NC(=O)[C@H](CCN)NC1=O [Compound 21] (X45-[Dab]T[Dap][Dab][Dab][dL][Abu][Dab][Dab]T; lactam 4-C) | 0.25 µg/mL (≈ 0.215 µM) | 0.25 µg/mL (≈ 0.215 µM) | 0.25 µg/mL (≈ 0.215 µM) | 0.5 µg/mL (≈ 0.431 µM) | <0.125 µg/mL | <0.125 µg/mL | <0.125 µg/mL | 0.25 µg/mL (≈ 0.215 µM) | 0.25 µg/mL (≈ 0.215 µM) | 1 µg/mL (≈ 0.862 µM) | 0.25 µg/mL (≈ 0.215 µM) | <0.125 µg/mL | 0.25 µg/mL (≈ 0.215 µM)
CC[C@@H]1NC(=O)[C@@H](CC(C)C)NC(=O)[C@H](CCN)NC(=O)[C@@H](NC(=O)[C@H](CN)NC(=O)[C@@H](NC(=O)[C@H](CCN)NC(=O)c2coc(Br)c2)[C@@H](C)O)CCNC(=O)[C@H]([C@@H](C)O)NC(=O)[C@H](CCN)NC(=O)[C@H](CCN)NC1=O [Compound 103] (X68-[Dab]T[Dap][Dab][Dab][dL][Abu][Dab][Dab]T; lactam 4-C) | 1 µg/mL (≈ 0.862 µM) | 1 µg/mL (≈ 0.862 µM) | 1 µg/mL (≈ 0.862 µM) | 2 µg/mL (≈ 1.72 µM) | 0.5 µg/mL (≈ 0.431 µM) | 0.5 µg/mL (≈ 0.431 µM) | 0.5 µg/mL (≈ 0.431 µM) | 0.5 µg/mL (≈ 0.431 µM) | 0.5 µg/mL (≈ 0.431 µM) | 0.5 µg/mL (≈ 0.431 µM) | 0.5 µg/mL (≈ 0.431 µM) | <0.125 µg/mL | 0.5 µg/mL (≈ 0.431 µM)
